target: T1, Human FXa (Homo sapiens, UniProt P00742); test: Measuring human FXa inhibitory action (chromogenic substrate S-2222); type: biochemical; settings: Human FXa 0.019 U/ml, S-2222 0.4 mM, Tris-HCl buffer (pH 7.5), 37 °C, absorbance at 405 nm
T1 construct: purchased Enzyme Research Laboratories, Inc
Protocol: The outstanding FXa inhibitory activity of the compounds of the present invention can be verified by the following tests. 1) Measurement of Enzyme Inhibitory Action a) Measuring human FXa inhibitory action In vitro FXa inhibitory activity is measured in accordance with the method of Kettner et al., J. Biol. Chem., 1990, 265, 18289-18297. Human FXa (Enzyme Research Laboratories, Inc., 0.019 U/ml) is mixed with a test compound diluted with dimethyl sulfoxide (DMSO) at various concentrations and a synthesis substrate S-2222 (Chromogenix AB, 0.4 mM) and incubated in a Tris-HCl buffer (pH 7.5) at 37 °C while the absorbance at 405 nm is measured continuously. To calculate the FXa inhibitory activity of the test cmpound, the initial reaction velocity is compared with the value for a control containing no test compound. The FXa inhibitory activity of a test compound is usually expressed as IC50. The compounds of the present invention were measured for their FXa inhibitory activity by the above-described method and they had potencies between 1 nM and 1µm in terms of IC50. […]

T1 sequence (P00742 235-488 limits assumed): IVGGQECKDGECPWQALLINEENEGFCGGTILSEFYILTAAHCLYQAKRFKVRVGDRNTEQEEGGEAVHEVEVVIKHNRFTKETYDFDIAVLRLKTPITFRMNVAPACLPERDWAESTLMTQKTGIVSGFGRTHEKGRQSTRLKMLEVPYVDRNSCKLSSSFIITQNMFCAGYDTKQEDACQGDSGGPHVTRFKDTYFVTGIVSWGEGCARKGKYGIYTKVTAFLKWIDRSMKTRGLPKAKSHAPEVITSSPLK
T1 sequence (P00742 41-179 partner limits assumed): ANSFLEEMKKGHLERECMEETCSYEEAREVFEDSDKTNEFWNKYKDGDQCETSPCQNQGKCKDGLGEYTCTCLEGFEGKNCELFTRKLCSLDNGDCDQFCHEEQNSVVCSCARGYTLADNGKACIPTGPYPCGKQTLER

SMILES	IC50 [nM]
O=C(C1CCN(c2ccncc2)CC1)N1CCN(S(=O)(=O)/C=C/c2ccc(Cl)cc2)CC1 [Control, 1-((E)-4-chlorostyrylsulfonyl)-4-[1-(4-pyridyl)piperidin-4-ylcarbonyl]piperazine, reference compound]	150
NC(=O)C1CN(S(=O)(=O)c2ccc3cc(Cl)ccc3c2)CC(=O)N1CC1CCN(c2ccncc2)CC1 (stereo not drawn) [Example 46]	17
CN(C)CC1CN(S(=O)(=O)c2ccc3cc(Cl)ccc3c2)CC(=O)N1CC1CCN(c2ccncc2)CC1 (stereo not drawn) [Example 54, 4-(6-chloronaphthalen-2-ylsulfonyl)-6-dimethylaminomethyl-1-[1-(4-pyridyl)piperidin-4-ylmethyl]piperazin-2-one]	8.5
CC(=O)NCC1CN(S(=O)(=O)c2ccc3cc(Cl)ccc3c2)CC(=O)N1CC1CCN(c2ccncc2)CC1 (stereo not drawn) [Example 55, 6-acetamidomethyl-4-(6-chloronaphthalen-2-ylsulfonyl)-1-[1-(4-pyridyl)piperidin-4-ylmethyl]piperazin-2-one]	7.4

Second part, the compound after the results:

IC50 [nM]	SMILES
19	CCOC(=O)C1CN(S(=O)(=O)c2ccc3cc(Cl)ccc3c2)CC(=O)N1CC1CCN(c2ccncc2)CC1 (stereo not drawn) [Example 39, 4-(6-chloronaphthalen-2-ylsulfonyl)-6-ethoxycarbonyl-1-[1-(4-pyridyl)piperidin-4-ylmethyl]piperazin-2-one]
7.4	O=C(O)C1CN(S(=O)(=O)c2ccc3cc(Cl)ccc3c2)CC(=O)N1CC1CCN(c2ccncc2)CC1 (stereo not drawn) [Example 40, 6-carboxy-4-(6-chloronaphthalen-2-ylsulfonyl)-1-[1-(4-pyridyl)piperidin-4-ylmethyl]piperazin-2-one]
13	O=C1CN(S(=O)(=O)c2ccc3cc(Cl)ccc3c2)CC(C=NO)N1CC1CCN(c2ccncc2)CC1 (stereo not drawn) [Example 47, 6-aldoximyl-4-(6-chloronaphthalen-2-ylsulfonyl)-1-[1-(4-pyridyl)piperidin-4-ylmethyl]piperazin-2-one]
12	NCC1CN(S(=O)(=O)c2ccc3cc(Cl)ccc3c2)CC(=O)N1CC1CCN(c2ccncc2)CC1 (stereo not drawn) [Example 52, 6-aminomethyl-4-(6-chloronaphthalen-2-ylsulfonyl)-1-[1-(4-pyridyl)piperidin-4-ylmethyl]piperazin-2-one]
16	CCOC(=O)[C@H]1CN(S(=O)(=O)c2ccc3cc(Cl)ccc3c2)CC(=O)N1CC1CCN(c2ccncc2)CC1 [Example 60, (R)-4-(6-chloronaphthalen-2-ylsulfonyl)-6-ethoxycarbonyl-1-[1-(4-pyridyl)piperidin-4-ylmethyl]piperazin-2-one]
70	CCOC(=O)[C@@H]1CN(S(=O)(=O)c2ccc3cc(Cl)ccc3c2)CC(=O)N1CC1CCN(c2ccncc2)CC1 [Example 61, (S)-4-(6-chloronaphthalen-2-ylsulfonyl)-6-ethoxycarbonyl-1-[1-(4-pyridyl)piperidin-4-ylmethyl]piperazin-2-one]

test system: rat plasma; test: Measuring extrinsic coagulation time (PT) in vitro in rat plasma; settings: 37°C 3 minutes, thromboplastin reagent, concentration required to double the coagulation time
Protocol: The compounds synthesized in the Examples of the present invention had FXa inhibitory activities at least equal to that of the control compound. 2) Measurement of Anticoagulation Activity (in vitro) a) Measuring extrinsic coagulation time Thromboplastin time (PT) is measured in the presence of test compounds diluted at various concentrations. A test compound diluted with DMSO at various concentrations is mixed with rat plasma and incubated at 37°C for 3 minutes. Then, a thromboplastin reagent is added and the coagulation time is measured. The anticoagulation activity of the test compound is indicated in terms of the concentration required to double the coagulation time for the case where no test compound is added. […]

SMILES	PT Doubling Concentration [µM]
CCOC(=O)C1CN(S(=O)(=O)c2ccc3cc(Cl)ccc3c2)CC(=O)N1CC1CCN(c2ccncc2)CC1 (stereo not drawn) [Example 39, 4-(6-chloronaphthalen-2-ylsulfonyl)-6-ethoxycarbonyl-1-[1-(4-pyridyl)piperidin-4-ylmethyl]piperazin-2-one]	2.8
O=C(O)C1CN(S(=O)(=O)c2ccc3cc(Cl)ccc3c2)CC(=O)N1CC1CCN(c2ccncc2)CC1 (stereo not drawn) [Example 40, 6-carboxy-4-(6-chloronaphthalen-2-ylsulfonyl)-1-[1-(4-pyridyl)piperidin-4-ylmethyl]piperazin-2-one]	2.7
